Laboratory results from US4849425A, “Readily absorbable pharmaceutical composition” (Ishihara Sangyo Kaisha Ltd., priority 1985, dated 1989).

What was measured:
[1] = Absorbability through the gut, oral, various dispersing solvents, plasma concentration in rats (Test Example 4); assay type: in vivo, Wistar male rats; conditions: 20 mg/kg, rat
Description: 20 mg of Compound No. […] 3. The suspension was orally administered by an oral sonde to a group of three Wistar male rats (body weight: 200-250g). The dose of Compound No. 3 was 20 mg/kg rat body weight. Further, Compound No. 3 was likewise suspended in an aqueous solution containing 0.5% of sodium salt of carboxymethyl cellulose, and the suspension was used as the control ( in FIG. 3). After the administration, the blood was periodically sampled, and the plasma was separated. After the removal of protein by acetonitrile, Compound No. 3 in the plasma was quantitatively analyzed by a high speed liquid chromatography as shown in Test Example 1.
The changes with time of the concentration of Compound No. 3 in the plasma after the oral administration were studied in the same manner as in Test Example 3 by using an aqueous solution of 10% (weight/volume) Polysolvate 80 (Tween 80, manufactured by Nakayai Kagaku K.K.), 10% (weight/volume) polyoxyethylene hardened caster oil 60 (manufactured by Nikko Chemical K.K.), 100% polyethylene glycol 400 or 50% (weight/volume) dimethyl β-type cyclodextrin, as the dispersing solvent for Compound No. 3, and an aqueous solution of 0.5% (weight/volume) sodium salt of carboxymethyl cellulose, as the control. […]

[2] = Absorbability through the gut, oral suspension in cyclodextrin solutions, plasma concentration in rats (Test Example 3); assay type: in vivo, Wistar male rats; conditions: 40% dimethyl β-type cyclodextrin vs control (0.5% sodium carboxymethyl cellulose), 20 mg/kg, rat
Description: 20 mg of Compound No. 3 was taken into a mortar, and 5 ml of an aqueous solution containing 1.7% of β-type cyclodextrin or 2% or 40% of dimethyl β-type cyclodextrin was added under stirring to obtain a suspension of Compound No. 3. The suspension was orally administered by an oral sonde to a group of three Wistar male rats (body weight: 200-250g). The dose of Compound No. 3 was 20 mg/kg rat body weight. Further, Compound No. 3 was likewise suspended in an aqueous solution containing 0.5% of sodium salt of carboxymethyl cellulose, and the suspension was used as the control ( in FIG. 3). After the administration, the blood was periodically sampled, and the plasma was separated. After the removal of protein by acetonitrile, Compound No. 3 in the plasma was quantitatively analyzed by a high speed liquid chromatography as shown in Test Example 1.

[3] = Rectal suppository, plasma concentration in rats (Test Example 6); assay type: in vivo, Wistar male rat; conditions: rat; for Concentration in the plasma / concentration at 0.5 h / concentration at 1 h / concentration at 2 h / concentration at 4 h: rectal; for Concentration in the plasma: 0; for concentration at 0.5 h / concentration at 1 h / concentration at 2 h / concentration at 4 h: plasma
Description: A Witepsol W-35 suppository (weight: about 45 mg) comprising 1.8 mg of Compound No. 3 and 12.5% (weight/volume) of dimethyl β-type cyclodextrin, was administered to the rectum of each Wistar male rat having a body weight of about 90 g (a group of three rats). Then, the blood was periodically sampled from the jugular vein, and the concentration of Compound No. 3 in the plasma was measured. To a control group, a suppository contained no cyclodextrin was administered. It is evident that by the addition of dimethyl β-type cyclodextrin, the absorbability of Compound No. 3 increased.

L-1210 leukemia cells = assay: Antitumour activity against intraperitoneally inoculated L-1210 leukemia, oral administration (Test Example 9); assay type: in vivo, BDF1 mice
Excerpt: The pharmacological activities of the pharmaceutical compositions of the present invention were studied.
To BDF1 mice (male, […]), L-1210 leukemia cells were intraperitoneally inoculated in an amount of 1×10^6 cells/mouse. One day later and 4 days later, a test drug was orally administered. […]

[4] = 1.8 mg, Witepsol W-35 suppository, 12.5% (w/v) dimethyl β-type cyclodextrin
[5] = 1.8 mg, control suppository without cyclodextrin

With `O=C(NC(=O)c1ccccc1[N+](=O)[O-])Nc1ccc(Oc2ncc(Br)cn2)c(Cl)c1` [Compound No. 3, N-(2-nitrobenzoyl)-N'-[4-(5-bromo-2-pyrimidinyloxy)-3-chlorophenyl]urea] the “concentration in the plasma as compared with the control” value ([1]; 50% (w/v) dimethyl β-type cyclodextrin vs 0.5% sodium carboxymethyl cellulose) was “about 7.5 times”, the “concentration in the plasma as compared with the control” value ([1]; 100% polyethylene glycol 400 vs 0.5% sodium carboxymethyl cellulose) was “about 5 times” and the “concentration in the plasma relative to the control” value [2] was “about 3.5 times”. For the same molecule, the “Concentration in the plasma” value ([3]; Witepsol W-35 suppository, 1.8 mg, 12.5% (w/v) dimethyl β-type cyclodextrin) was 0 µg/mL, the absorbability ([3]; addition of dimethyl β-type cyclodextrin, rectal suppository) was “increased” and the “Concentration in the plasma” value ([3]; control suppository without cyclodextrin) was 0 µg/mL. It also gave a concentration at 0.5 h [3, 4] of 320 ng/mL, a concentration at 1 h [3, 4] of 480 ng/mL and a concentration at 2 h [3, 4] of 940 ng/mL. It also gave a concentration at 4 h [3, 4] of 990 ng/mL, a concentration at 0.5 h [3, 5] of 40 ng/mL and a concentration at 1 h [3, 5] of 80 ng/mL. For the same molecule, the concentration at 2 h [3, 5] was 110 ng/mL, the concentration at 4 h [3, 5] was 90 ng/mL and the antitumour activities (L-1210 leukemia cells; only when administered together with the substance specified in the invention) was “distinctly observed”. The T/C (L-1210 leukemia cells; polyethylene glycol 400 + substrate + Compound No. 3, 6.25 mg/kg) was 120%, the T/C (L-1210 leukemia cells; polyethylene glycol 400 + substrate + Compound No. 3, 12.5 mg/kg) was 134% and the T/C (L-1210 leukemia cells; polyethylene glycol 400 + substrate + Compound No. 3, 25 mg/kg) was 183%. For the same molecule, the T/C (L-1210 leukemia cells; polyethylene glycol 400 + substrate + Compound No. 3, 50 mg/kg) was 95%, the antitumour activities (L-1210 leukemia cells; polyethylene glycol 400 absent) was “no antitumour activities were observed” and the T/C (L-1210 leukemia cells; substrate + Compound No. 3 (no polyethylene glycol 400), 6.25 mg/kg) was 102%. For the same molecule, the T/C (L-1210 leukemia cells; substrate + Compound No. 3 (no polyethylene glycol 400), 12.5 mg/kg) was 102%, the T/C (L-1210 leukemia cells; substrate + Compound No. 3 (no polyethylene glycol 400), 25 mg/kg) was 101% and the T/C (L-1210 leukemia cells; substrate + Compound No. 3 (no polyethylene glycol 400), 50 mg/kg) was 103%.
